Series [1] in a line: In vitro plasma stability of apelin peptides (Table 15; plasma species not given). Conditions: 5 μM in plasma, 37° C. The series is classed as in vitro ADME. The source says:
(metabolite data not shown).

A short description of another series: in vitro. Particulars: rat, plasma.
For series [2] the following is noted: background statement; cited from earlier work.
In a further series the test system is isolated cardiomyocyctes. Particulars: isolated cardiomyocytes; Barnes et al.; cited from earlier work.
For another series, the target named is APJ receptor. In words: EC50 IP (µM). The source says:
Table printed on a drawing sheet, FIGURE 3B
Head of the field: EC50 IP (µM)
Section band inside the table: Peptides with 525 Da PEG modification
The patent's description of the figure: FIGS. 3A-C.
First copying reader's note: Row 2 is a section heading spanning all columns; blanks inside names and sequences only mark line breaks within the printed cell.
Where the first naming reader finds the target: passage: An “APJ agonist” should be understood to refer to a molecule that is able to activate the APJ receptor.

The share remaining is what is left of the initial amount, in per cent. Low readings indicate more turnover, high ones less turnover. Turning to `CSCC[C@H](NC(=O)[C@@H]1CCCN1C(=O)CNC(=O)[C@H](CCCCN)NC(=O)[C@H](Cc1cnc[nH]1)NC(=O)[C@H](CO)NC(=O)[C@H](CC(C)C)NC(=O)[C@H](CCCNC(=N)N)NC(=O)[C@@H]1CCCN1C(=O)[C@H](CCCNC(=N)N)NC(=O)[C@@H](N)CCC(N)=O)C(=O)N1CCC[C@H]1C(=O)N[C@@H](Cc1ccccc1)C(=O)O` [Apelin-13], in series [1], the “in vitro plasma stability, % at 15 minutes” value came to 0.1%. For the same compound, in “in vitro”, the share remaining at 0.25 h, 5 μM turned out to be 0.1%. Further, the plasma half-life in series [2] is under 5 min.

With apelin, the “increase in sarcomere shortening” value in the series on isolated cardiomyocyctes is “up to 140%”.

A word on the EC50: it is the concentration giving half of the maximal effect. “{Hydrogen}[PE]RP[hArg][Cha][Pra(NPeg9) ]HKG[Oic][Nle][4-Cl-F]{FreeAcid}”: the EC50 at APJ receptor stood at 133 nM.

These data come from patent publication US20160067347A1, “APJ RECEPTOR AGONISTS AND USES THEREOF” (AMGEN INC., priority 2012, published 2016).
